Columns and labels:
Aβ42 [1] = test: Method 1: Aβ42 sandwich ELISA in supernatant of SKNBE2 cells carrying APP 695-wild type (Tables 7a, 7b); type: cell-based
Summary of the method: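 IC50 values were derived with a 4-parameter equation, fitting either percent inhibition or percent of compound-free Aβ42 as the control. The Aβ42 came from supernatants of APP695 wild-type SKNBE2 cells treated for 18 hours. It was measured by ELISA with anti-Aβ42 capture, biotinylated 3D6 and TMB absorbance at 450 nm.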

Aβtotal [2] = test: Method 1: Aβtotal sandwich ELISA in supernatant of SKNBE2 cells carrying APP 695-wild type (Tables 7a, 7b); type: cell-based
Summary of the method: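 SKNBE2 cells expressing wild-type APP695 were exposed to compound for 18 Hours in Ultraculture with 1% glutamine. Aβtotal in the supernatant was read by 6E10-capture/biotinylated 4G8 sandwich ELISA with a fluorogenic peroxidase read-out, and WST-1 checked toxicity. IC50 came from a 4-parameter fit of percent inhibition or percent of control versus concentration.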

Aβ42 [3] = test: In vivo efficacy: Aβ42 lowering in brain after single oral dose (Table 8); settings: mouse brain soluble fraction, ELISA, compared to untreated animals
Description: (§1) To determine whether acute administration of an Aβ42 lowering agent would reduce Aβ42 levels in vivo, non-transgenic rodents, e.g. mice or rats were used. Alternatively, two to three month old Tg2576 mice expressing APP695 containing the “Swedish” variant can be used or a transgenic mouse model developed by Dr. Fred Van Leuven (K.U.Leuven, Belgium) and co-workers, with neuron-specific expression of a clinical mutant of the human amyloid precursor protein [V7171] (Moechars et al., 1999 J. Biol. Chem. 274, 6483). Young transgenic mice have high levels of Aβ in the brain but no detectable Aβ deposition. At approximately 6-8 months of age, the transgenic mice start to display spontaneous, progressive accumulation of β-amyloid (Aβ) in the brain, eventually resulting in amyloid plaques within the subiculum, hippocampus and cortex. Animals treated with the Aβ42 lowering agent were examined and compared to those untreated or treated with vehicle and brain levels of soluble Aβ42 and total Aβ would be quantitated by standard techniques, for example, using ELISA. Treatment periods varied from hours to days and were adjusted based on the results of the Aβ42 lowering once a time course of onset of effect could be established.
(§2) A typical protocol for measuring Aβ42 lowering in vivo is shown but it is only one of many variations that could be used to optimize the levels of detectable Aβ. For example, Aβ42 lowering compounds were formulated in 20% of Captisol® (a sulfobutyl ether of β-cyclodextrin) in water or 20% hydroxypropyl β cyclodextrin. The Aβ42 lowering agents were administered as a single oral dose or by any acceptable route of administration to overnight fasted animals. After four hours, the animals were sacrificed and Aβ42 levels were analysed.
(§3) Blood was collected by decapitation and exsanguinations in EDTA-treated collection tubes. Blood was centrifuged at 1900 g for 10 min at 4° C. and the plasma recovered and flash frozen for later analysis. The brain was removed from the cranium and hindbrain. The cerebellum was removed and the left and right hemisphere were separated. The left hemisphere was stored at −18° C. for quantitative analysis of test compound levels. The right hemisphere was rinsed with phosphate-buffered saline (PBS) buffer and immediately frozen on dry ice and stored at −80° C. until homogenization for biochemical assays.
(§4) Mouse brains were resuspended in 10 volumes of 0.4% DEA (diethylamine)/50 mM NaCl pH 10 (for non-transgenic animals) or 0.1% 3-[(3-cholamidopropyl)-dimethyl-ammonio]-1-propanesulfonate (CHAPS) in tris buffered saline (TBS) (for transgenic animals) containing protease inhibitors (Roche-11873580001 or 04693159000 per gram of tissue, e.g. for 0.158 g brain, add 1.58 ml of 0.4% DEA. All samples were sonicated for 30 sec on ice at 20% power output (pulse mode). Homogenates were centrifuged at 221.300×g for 50 min. The resulting high speed supernatants were then transferred to fresh tubes and were optionally further purified before the next step. A portion of the supernatant was neutralized with 10% 0.5 M Tris-HCl and this was used to quantify Aβtotal.
(§5) The obtained supernatants were purified with Water Oasis HLB reverse phase columns (Waters Corp., Milford, Mass.) to remove non-specific immunoreactive material from the brain lysates prior subsequent Aβ detection. Using a vacuum manifold, all solutions were passed through the columns at a rate of approximately 1 ml per minute, so the vacuum pressure was adjusted accordingly throughout the procedure. Columns were preconditioned with 1 ml of 100% MeOH, before equilibration with 1 ml of H2O. Non-neutralized brain lysates were loaded onto the columns. The loaded samples were then washed twice with the first wash performed with 1 ml of 5% MeOH, and the second wash with 1 ml of 30% MeOH. Finally, the Aβ was eluted from the columns and into 100×30 mm glass tubes, with a solution of 90% MeOH with 2% NH4OH. […]

Aβtotal [4] = test: In vivo efficacy: Aβtotal lowering in brain after single oral dose (Table 8); settings: mouse brain soluble fraction, ELISA, compared to untreated animals
Description: as §1, §2, §3, §4, §5

Aβ42 [5] = test: Method 2: Aβ42 Alphalisa in supernatant of SKNBE2 cells carrying APP 695-wild type (Table 7c); type: cell-based; settings: Method 2, Alphalisa, overnight incubation
Summary of the method: (§6)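 Secreted Aβ measured by AlphaLISA sandwich immunoassay after overnight compound exposure (37° C, 10^4 cells/well) of APP695-wild-type SKNBE2 cells. Aβtotal pairs antibodies JRF/AβN/25 and biotinylated 4G8; Aβ42 pairs JRF/cAβ42/26 and JRF/AβN/25. Values normalised to compound-free control and fitted with a four-parameter equation for IC50.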

Aβtotal [6] = test: Method 2: Aβtotal Alphalisa in supernatant of SKNBE2 cells carrying APP 695-wild type (Table 7c); type: cell-based; settings: Method 2, Alphalisa, overnight incubation
Summary of the method: as §6

[7] = Homo sapiens, SKNBE2, Table 7b, averaged IC50, non-linear regression of percentage of control vs log concentration, 4-parameter equation
[8] = Homo sapiens, Table 7a, SKNBE2 cells, compounds 18 h, XLfit 4-parameter fit of percent inhibition, top/bottom fixed to 100/0, hill slope 1
[9] = Table 7a, SKNBE2 cells, compounds 18 h, XLfit 4-parameter fit of percent inhibition, top/bottom fixed to 100/0, hill slope 1
[10] = Table 7b, averaged IC50, non-linear regression of percentage of control vs log concentration, 4-parameter equation

SMILES	Aβ42 (% Ctrl)_Mean (Aβ42 [3]) [% Ctrl]	Aβtotal (% Ctrl)_Mean (Aβtotal [4]) [% Ctrl]	IC50 (Aβ42 [1]; [10]) [nM]	IC50 (Aβtotal [2]; [10]) [nM]	further results
COc1cc(Nc2cccn3cc(-c4ccc(F)cc4)nc23)ccc1-c1ocnc1C [Compound 1]	–	–	–	–	IC50 (Aβ42 [1]; [7]): 200 nM; IC50 (Aβ42 [1]; [8]): 203 nM; IC50 (Aβtotal [2]; [7]): > 5000 nM; IC50 (Aβtotal [2]; [8]): > 5000 nM; melting point: 163.2 °C
COc1cccc(-c2nc3c(Nc4ccc(-c5ocnc5C)c(OC)c4)cccn3c2C)c1 [Compound 2]	95	104	–	–	IC50 (Aβ42 [1]; [7]): 20 nM; IC50 (Aβ42 [1]; [8]): 22 nM; IC50 (Aβtotal [2]; [7]): > 3000 nM; IC50 (Aβtotal [2]; [8]): > 3000 nM
COc1cc(Nc2cccn3cc(-c4ccc(F)cc4)nc23)ccc1-c1cnc(C)o1 [Compound 3]	–	–	–	–	IC50 (Aβ42 [1]; [7]): 178 nM; IC50 (Aβ42 [1]; [8]): 196 nM; IC50 (Aβtotal [2]; [7]): > 10000 nM; IC50 (Aβtotal [2]; [8]): > 10000 nM; melting point: 219.1 °C
COc1cc(Nc2cccc3c2nc(-c2ccc(F)cc2)n3C(C)C)ccc1-c1cnc(C)o1.Cl.Cl [Compound 25]	76	96	23	> 3000	IC50 (Aβ42 [1]; [9]): 24 nM; IC50 (Aβtotal [2]; [9]): > 3000 nM
COc1cc(Nc2cc(C(F)(F)F)cc3c2nc(-c2ccc(F)cc2)n3C)ccc1-c1cnc(C)o1 [Compound 30]	96	92	35	> 10000	–
COc1cc(Nc2nccc3c2nc(-c2ccc(F)cc2F)n3C)ccc1-c1cnc(C)o1 [Compound 31]	91	102	78	> 3000	IC50 (Aβ42 [1]; [9]): 76 nM; IC50 (Aβtotal [2]; [9]): > 3000 nM
COc1ccc(C)c(-c2cn3cccc(Nc4ccc(-c5cnc(C)o5)cc4)c3n2)c1 [Compound 40]	77	102	12	> 3000	IC50 (Aβ42 [1]; [9]): 11 nM; IC50 (Aβtotal [2]; [9]): > 3000 nM
COc1ccc(C)c(-c2cn3cccc(Nc4ccc(-c5cnc(C)o5)c(F)c4)c3n2)c1 [Compound 41]	93	87	126	> 3000	–
COc1cc(Nc2nccc3c2nc(-c2ccc(F)cc2F)n3C)ccc1-c1ocnc1C [Compound 54]	101	104	490	> 10000	–
Cc1cc2c(nc(-c3ccc(F)cc3)n2C)c(Nc2ccc(-c3cnc(C)o3)cc2)n1 [Compound 58]	89	105	240	> 10000	–
COc1cc(Nc2nc(C)cc3c2nc(-c2ccc(F)cc2)n3C)ccc1-c1cnc(C)o1 [Compound 59]	97	95	72	> 3000	–
COc1cccc(-c2nc3c(Nc4ccc(-c5cnc(C)o5)c(OC)c4)cccc3n2C)c1 [Compound 63]	56	90	11	> 3000	–
COc1cc(Nc2ccc(-c3cnc(C)o3)c(OC)c2)c2nc(-c3ccc(F)cc3)n(C)c2c1 [Compound 95]	47	88	23	> 3000	–
COc1cccc(-c2nc3c(Nc4ccc(-c5cnc(C)o5)c(OC)c4)nc(C)cc3n2C)c1 [Compound 97]	71	102	21	> 3000	–
Cc1ncc(-c2ccc(Nc3cc(C(F)(F)F)cc4c3nc(-c3ccc(F)cc3)n4C)cn2)o1 [Compound 101]	77	92	–	–	IC50 (Aβ42 [5]): 46 nM; IC50 (Aβtotal [6]): > 10000 nM
COc1cc(Nc2cc(F)cc3c2nc(N2CCCC2)n3C)ccc1-c1cnc(C)o1 [Compound 104]	110	97	–	–	IC50 (Aβ42 [5]): 501 nM; IC50 (Aβtotal [6]): > 10000 nM
COc1cc(Nc2cc(C(F)(F)F)cn3cc(C)nc23)ccc1-c1ocnc1C.Cl.Cl [Compound 141]	87	89	251	> 10000	–
COc1cc(Nc2cc(F)cn3cc(CC(C)C)nc23)ccc1-c1ocnc1C.Cl [Compound 157]	77	100	81	> 10000	–
COc1cc(Nc2cc(C(F)(F)F)cn3cc(C(C)=O)nc23)ccc1-c1ocnc1C [Compound 165]	–	–	–	–	IC50 (Aβ42 [1]; [7]): 288 nM; IC50 (Aβtotal [2]; [7]): > 30000 nM; melting point: 183.6 °C
Cc1ncc(-c2ccc(Nc3cccn4c(C(C)C)c(-c5ccc(F)cc5)nc34)cc2)o1 [Compound 175]	–	–	–	–	IC50 (Aβ42 [1]; [7]): 33 nM; IC50 (Aβtotal [2]; [7]): > 3000 nM; melting point: 157.2 °C
Cc1cn2cc(Br)nc(Nc3ccc(-c4cnc(C)o4)cc3)c2n1 [Compound 179]	–	–	–	–	IC50 (Aβ42 [1]; [7]): > 3000 nM; IC50 (Aβtotal [2]; [7]): > 3000 nM; melting point: 200.1 °C
Cc1ncc(-c2ccc(Nc3cc(C(F)(F)F)cn4cc(C(=O)N(C)C)nc34)cc2F)o1 [Compound 181]	104	105	> 3000	> 3000	–

Reference: patent US8946426B2, “Substituted bicyclic heterocyclic compounds as gamma secretase modulators” (Janssen Pharmaceuticals, Inc., priority 2009, dated 2015)
